Measured values published in patent US20250136634A1, “CAP ANALOG AND USE THEREOF” (SHANGHAI HONGENE BIOTECH CORPORATION, priority 2021, published 2025).

What was measured:
[1] = target: T1, RIG-I (Homo sapiens, UniProt O95786); test: Binding ability of mRNA to RIG-I, RNA co-immunoprecipitation and qPCR in Hela cells; conditions: 2 ug mRNA/well, cells collected after 24 hours, relative to ^m7GpppApG cap, mean±SD
T1 construct: endogenous in cells; host or cells: Hela cells (ATCC CCL-2)
T1 sequence (O95786 1-925): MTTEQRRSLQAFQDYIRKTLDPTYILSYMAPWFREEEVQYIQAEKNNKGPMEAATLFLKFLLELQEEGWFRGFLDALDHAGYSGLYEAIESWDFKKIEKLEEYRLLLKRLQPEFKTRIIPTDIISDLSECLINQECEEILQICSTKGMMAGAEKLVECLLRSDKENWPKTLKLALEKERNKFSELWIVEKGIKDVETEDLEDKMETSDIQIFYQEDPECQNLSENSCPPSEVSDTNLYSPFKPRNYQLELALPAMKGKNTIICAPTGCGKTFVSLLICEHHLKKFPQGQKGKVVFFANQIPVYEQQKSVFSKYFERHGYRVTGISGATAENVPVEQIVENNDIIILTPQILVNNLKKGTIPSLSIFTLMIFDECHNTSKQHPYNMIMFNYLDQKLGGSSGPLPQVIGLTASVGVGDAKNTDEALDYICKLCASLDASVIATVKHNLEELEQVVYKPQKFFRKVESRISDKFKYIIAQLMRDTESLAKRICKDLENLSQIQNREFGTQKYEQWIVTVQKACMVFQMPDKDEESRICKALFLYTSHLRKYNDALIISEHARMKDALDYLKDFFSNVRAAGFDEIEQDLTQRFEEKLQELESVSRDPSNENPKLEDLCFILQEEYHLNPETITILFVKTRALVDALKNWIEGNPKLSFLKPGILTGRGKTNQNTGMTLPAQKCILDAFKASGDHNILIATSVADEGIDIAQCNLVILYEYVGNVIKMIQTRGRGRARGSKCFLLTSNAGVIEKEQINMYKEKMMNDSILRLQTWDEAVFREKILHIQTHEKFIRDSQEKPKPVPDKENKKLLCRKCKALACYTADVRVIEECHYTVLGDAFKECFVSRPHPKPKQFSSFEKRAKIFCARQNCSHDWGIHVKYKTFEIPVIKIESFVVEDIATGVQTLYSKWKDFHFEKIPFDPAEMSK
Procedure: (§1) In this example, Hela cells (ATCC CCL-2) were transfected with luciferase mRNAs (Gaussia luciferase) comprising various initial cap structures (the initial cap nucleotide structures comprised are: ^m7GpppApG, ^m7GpppA2′Ome pG, ^m7G3′OmepppA2′O-ethylpG, ^m7G2′OmepppA2′O-ethylpG, ^m7G3′Omeppp A2′O-MOEpG, ^m7G2′O-mepppA2′O-MOEpG, ^m7Gppp(N6-methyladenine)2′O-MOEpG, ^m7G2′OmepppC2′O-ethylpC, ^m7G3′OmepppA2′O-MOEpU), and collected after 24 hours. The intracellular proteins RIG-I and IFIT1 were co-precipitated with the RNAs to which they bound by RNA co-immunoprecipation. The mRNAs were subjected to reverse transcription and real-time quantitative PCR, and the relative abundance of the mRNAs is proportional to their RIG-I and IFIT1 binding ability.
(§2) Hela cells were seeded at a cell density of 4×10^5/well in 6-well plates, and transfected with mRNA at 2 ug mRNA/well when the cell density reached about 80% using Lipofectamine MessengerMAX Transfection Reagent (Invitrogen) according to the transfection steps in the instruction. The cells were collected after 24 hours, and incubated at RT for 10 minutes after the addition of fixative solution. The reaction was then terminated by adding glycine at a suitable concentration, and the cells were collected by centrifugation. Appropriate amount of lysis solution was added to the cells. The mixture was incubated on ice for 30 minutes and centrifuged to collect supernatant. Appropriate amount of (2-4 ng) anti-RIG-I and IFIT1 antibodies (Abcam) were added to the supernatant, and the mixture was incubated overnight at 4° C. on a shaker, and then 20 ul Protein A/G magnetic beads were added and incubated for 2 hours at 4° C. on a shaker. The beads were rinsed using magnetic grate for 5 minutes and repeated 3 times. After that, 1 mL TRIzol reagent was added to the magnetic beads to extract RNAs which were then reverse transcribed into cDNAs. The expression of related genes was detected using real-time quantitative fluorescent PCR with B-actin as the internal reference. The detection of each gene was repeated 3 times, and the result of the expression of each gene is expressed as the relative value to the result of ^m7GpppApG cap.
(§3) The intracellular proteins RIG-I and IFIT1 were co-precipitated with the RNAs to which they bound by RNA co-immunoprecipitation. The mRNAs were subjected to reverse transcription and real-time quantitative PCR, and the relative abundance of the mRNAs is proportional to their RIG-I and IFIT1 binding ability.
as §2, with “(Invitrogen) as the transfection reagent” for “(Invitrogen)”, “was” for “was then”

[2] = target: T2, IFIT1 (Homo sapiens, UniProt P09914); test: Binding ability of mRNA to IFIT1, RNA co-immunoprecipitation and qPCR in Hela cells; conditions: 2 ug mRNA/well, cells collected after 24 hours, relative to ^m7GpppApG cap, mean±SD
T2 construct: endogenous in cells; host or cells: Hela cells (ATCC CCL-2)
T2 sequence (P09914 1-478): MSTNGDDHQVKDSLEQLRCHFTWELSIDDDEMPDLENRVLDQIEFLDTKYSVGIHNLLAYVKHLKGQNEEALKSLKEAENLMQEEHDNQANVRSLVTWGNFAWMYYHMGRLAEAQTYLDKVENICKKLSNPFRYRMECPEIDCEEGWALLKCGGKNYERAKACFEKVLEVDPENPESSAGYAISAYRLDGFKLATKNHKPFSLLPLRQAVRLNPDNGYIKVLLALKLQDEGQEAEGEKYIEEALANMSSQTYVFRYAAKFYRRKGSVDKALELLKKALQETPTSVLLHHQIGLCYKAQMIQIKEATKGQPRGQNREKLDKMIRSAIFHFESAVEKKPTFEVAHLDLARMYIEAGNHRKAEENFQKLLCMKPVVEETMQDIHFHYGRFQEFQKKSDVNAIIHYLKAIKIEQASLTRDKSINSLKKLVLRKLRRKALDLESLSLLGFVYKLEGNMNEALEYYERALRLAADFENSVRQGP
Procedure: as §1, §2, §3
as §2, with “(Invitrogen) as the transfection reagent” for “(Invitrogen)”, “was” for “was then”

Row | Substance | Relative binding ability to RIG ([1]; Example 3 (IVT at 50° C.)) | Relative binding ability to IFIT1 ([2]; Example 3 (IVT at 50° C.)) | Relative binding ability to RIG ([1]; Example 2) | Relative binding ability to IFIT1 ([2]; Example 2)
1 | ^m7GBeta-D-LNApppA2′O-MOEpG | 0.48 ± 0.02 | 0.49 ± 0.04 |  | 
2 | ^m7GAlpha-L-LNApppA2′O-ethyl pG | 0.52 ± 0.01 | 0.55 ± 0.07 |  | 
3 | ^m7G2′OmepppC2′O-ethylpC |  |  | 0.93 ± 0.08 | 0.91 ± 0.05
4 | ^m7Gppp(N6-methyladenine)2′O-MOEpG |  |  | 0.77 ± 0.14 | 0.79 ± 0.01
5 | ^m7G2′OmepppA2′O-ethylpG |  |  | 0.82 ± 0.03 | 0.84 ± 0.08
6 | ^m7G3′OmepppA2′O-MOEpG |  |  | 0.78 ± 0.07 | 0.76 ± 0.04
7 | ^m7G3′OmepppA2′O-MOEpU |  |  | 1.12 ± 0.01 | 1.19 ± 0.07
8 | ^m7GpppApG [reference compound] | 1 ± 0.28 | 1 ± 0.19 | 1 ± 0.23 | 1 ± 0.04
9 | ^m7G3′OmepppA2′O-ethylpG |  |  | 0.87 ± 0.11 | 0.89 ± 0.13
10 | ^m7GpppA2′Ome pG [reference compound] | 0.88 ± 0.11 | 0.84 ± 0.09 | 0.86 ± 0.06 | 0.88 ± 0.01
11 | ^m7G2′OmepppA2′O-MOEpG |  |  | 0.69 ± 0.01 | 0.66 ± 0.02
